Assay results as given in publication PMC9558053, “Development of a novel high-throughput screen for the identification of new inhibitors of protein S-acylation” (The Journal of Biological Chemistry, 2022).

Biological target: T1, human zDHHC2 (Homo sapiens, UniProt Q9UIJ5)
T1 construct: expressed in transfected cells; host or cells: HEK293T
T1 sequence (Q9UIJ5 1-367): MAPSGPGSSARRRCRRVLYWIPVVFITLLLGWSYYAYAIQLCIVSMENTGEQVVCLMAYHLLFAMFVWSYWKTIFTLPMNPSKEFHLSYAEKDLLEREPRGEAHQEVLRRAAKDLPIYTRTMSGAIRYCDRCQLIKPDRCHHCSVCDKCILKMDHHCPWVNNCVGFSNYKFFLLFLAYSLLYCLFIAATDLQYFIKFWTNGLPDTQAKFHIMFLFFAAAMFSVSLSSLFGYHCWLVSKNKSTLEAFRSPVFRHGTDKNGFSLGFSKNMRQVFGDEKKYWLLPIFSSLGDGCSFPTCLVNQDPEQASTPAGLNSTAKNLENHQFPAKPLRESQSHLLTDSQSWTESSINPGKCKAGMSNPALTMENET
Test: TR-FRET high-throughput assay of zDHHC2 autoacylation (HA-zDHHC2 lipoparticles, NBD-palmitoyl-CoA)
Format: biochemical
Conditions: Ono; for inhibition at 4.2 µM: compound 4.2 μM; for inhibition at 12.5 µM: compound 12.5 μM
Text: S-acylation is a two-step process involving enzyme “autoacylation” (at the cysteine of the DHHC motif) followed by transfer of the acyl chain to a substrate protein. To identify potential inhibitors of S-acylation, we developed an assay measuring enzyme autoacylation and focused on zDHHC2 given its prominent role in synaptic function in the nervous system (Fig. 1A). The assay monitors time-resolved FRET (TR-FRET) between the energy donor terbium cryptate (attached to an antibody recognizing hemagglutinin [HA]-tagged zDHHC2) and the acceptor fluorophore nitrobenzoxadiazole (NBD) (attached to the lipid group). The excitation of the energy donor terbium cryptate (360 nm) followed by its emission at 480 nm results in energy transfer to the acceptor NBD and emission at 539 nm. Enzyme autoacylation by NBD-conjugated palmitoyl-CoA increases the proximity of the terbium cryptate and NBD, leading to an increase in FRET signal. The resulting interaction is quantified as the ratiometric measurement of NBD (539 nm) over terbium (480 nm) emission and constitutes the TR-FRET signal.
Figure 1 High-throughput screen (HTS) for the discovery of chemical compounds modulating human zDHHC2 autoacylation activity: TR-FRET-based assay.A, experimental design of the HTS. HA-tagged zDHHC2 enzyme expressed at the surface of lipoparticles was incubated for 15 min at room temperature (RT) with NBD-tagged palmitoyl-CoA and an anti-HA antibody coupled to terbium (Tb) cryptate. Autoacylation of zDHHC2 on its catalytic cysteine brings closer the FRET donor Tb cryptate bound to the anti-HA antibody to the NBD fluorophore coupled to the palmitate and triggers FRET that can be followed over time (time-resolved FRET [TR-FRET]). B, TR-FRET was measured with increasing concentrations of NBD-palmitoyl-CoA (NBD-C16:0-CoA) and either WT zDHHC2 (left panel) or catalytically dead zDHHC2 C157S (right panel) over a period of 35 min. C, experimental conditions of the HTS screen. About 350,000 compounds were incubated individually in 1536-well plates at a concentration of 4.2 μM with zDHHC2 lipoparticles (42 μg/ml stock) for a few minutes before the addition of a mix containing the Tb cryptate–tagged anti-HA antibody (1:200 dilution) and 1 μM of NBD-palmitoyl-CoA (NBD-C16:0-CoA). TR-FRET was measured after a 15 min incubation at room temperature on a Biotek Synergy Neo apparatus. Results are given as a ratio between the FRET signal measured over a background baseline. D, histogram representation of ONO library screen showing the percentage of activity of zDHHC2 (as measured by TR-FRET) in the presence of each compound. The graph represents the number of compounds that are either activating (0 to 100) or inhibiting (0 to −100) zDHHC2 activity. […]

Compound	inhibition at 4.2 µM [%]	inhibition at 12.5 µM [%]
CCCCCCCOc1ccc(C(=O)Nc2cccc3c2OC(c2nnn[nH]2)CN3)cc1 (stereo not shown) [TTZ-1, N-(2-(1H-Tetrazol-5-yl)-3,4-dihydro-2H-benzo[b][1,4]oxazin-8-yl)-4-(heptyloxy)benzamide]	32	61
O=C(Nc1cccc2c1OC(c1nnn[nH]1)CN2)c1ccc(OCCCCc2ccccc2)cc1 (stereo not shown) [TTZ-2, N-(2-(1H-Tetrazol-5-yl)-3,4-dihydro-2H-benzo[b][1,4]oxazin-8-yl)-4-(4-phenylbutoxy)benzamide]	45	69
